Measurements taken from PMC7413254 (Nature Communications, 2020).
Like-named read-outs stand apart in the source and are kept apart here.

Columns and labels:
[1] = target: T1, PfCRT^3D7 (Plasmodium falciparum, UniProt Q8IBZ9); assay: cell-based; format: cell-based; details: PfCRT3D7 oocytes; for Uptake of [3H]CQ (% PfCRT3D7 control), trans-stimulation: total [3H]CQ transport, normalised to the oocyte type control; for PfCRT-mediated [3H]CQ transport, trans-stimulation (% PfCRT3D7 control): normalised to oocyte type control
T1 sequence (Q8IBZ9 59-398): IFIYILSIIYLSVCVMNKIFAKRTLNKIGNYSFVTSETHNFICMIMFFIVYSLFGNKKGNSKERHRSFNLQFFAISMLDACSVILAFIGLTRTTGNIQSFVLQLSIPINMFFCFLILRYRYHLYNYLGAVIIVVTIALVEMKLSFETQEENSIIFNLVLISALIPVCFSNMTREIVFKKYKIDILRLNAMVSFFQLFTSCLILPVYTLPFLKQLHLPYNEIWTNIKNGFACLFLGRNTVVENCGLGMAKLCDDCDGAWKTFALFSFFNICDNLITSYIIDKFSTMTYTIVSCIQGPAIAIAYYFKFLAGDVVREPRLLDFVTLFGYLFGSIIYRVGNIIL
Summary of the method: (§1)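 Transport measured in Xenopus oocytes expressing the transporters, 1.5 h at 27.5 °C in ND96 pH 5.5 unless noted. For trans-stimulation, VF-6 injected in 25 nL ND96 at pH 5.0–7.0 or Na^+-free (choline) buffer; intracellular levels based on ~400 nL oocyte volume. Ten oocytes per treatment, ≥4 experiments.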

[2] = target: T2, PfNT1 (Plasmodium falciparum, UniProt Q8IDM6); assay: cell-based; format: cell-based; details: PfNT1 oocytes, total [3H]CQ transport, normalised to the oocyte type control
T2 construct: expressed in transfected cells; host or cells: Xenopus laevis oocytes (stage V-VI), cRNA-injected
T2 sequence (Q8IDM6 whole entry): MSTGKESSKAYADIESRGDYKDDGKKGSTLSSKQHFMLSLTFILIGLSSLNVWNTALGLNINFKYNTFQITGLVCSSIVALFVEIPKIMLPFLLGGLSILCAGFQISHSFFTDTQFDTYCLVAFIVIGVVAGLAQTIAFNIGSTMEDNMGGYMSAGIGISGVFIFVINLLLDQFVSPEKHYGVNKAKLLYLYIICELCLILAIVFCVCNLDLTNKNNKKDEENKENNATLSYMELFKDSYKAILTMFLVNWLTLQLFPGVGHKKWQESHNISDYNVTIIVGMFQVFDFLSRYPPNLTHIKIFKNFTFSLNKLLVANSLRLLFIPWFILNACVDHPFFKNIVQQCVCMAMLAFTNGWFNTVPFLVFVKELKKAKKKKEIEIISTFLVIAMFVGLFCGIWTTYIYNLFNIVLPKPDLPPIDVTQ
Summary of the method: as §1

[3] = target: T3, PfCRT^Dd2 (Plasmodium falciparum, UniProt Q9N623, A220S/I356T/K76T/M74I/N326S/N75E/Q271E/R371I); assay: cell-based; format: cell-based; details: for PfCRT-mediated [3H]CQ transport, trans-stimulation (% PfCRTDd2 control): normalised to oocyte type control; for [3H]CQ transport (% PfCRTDd2 control), trans-stimulation, PfCRTDd2: PfCRT-mediated component (background subtracted), mean ± SEM, SEM
T3 sequence (Q9N623 whole entry A220S/I356T/K76T/M74I/N326S/N75E/Q271E/R371I): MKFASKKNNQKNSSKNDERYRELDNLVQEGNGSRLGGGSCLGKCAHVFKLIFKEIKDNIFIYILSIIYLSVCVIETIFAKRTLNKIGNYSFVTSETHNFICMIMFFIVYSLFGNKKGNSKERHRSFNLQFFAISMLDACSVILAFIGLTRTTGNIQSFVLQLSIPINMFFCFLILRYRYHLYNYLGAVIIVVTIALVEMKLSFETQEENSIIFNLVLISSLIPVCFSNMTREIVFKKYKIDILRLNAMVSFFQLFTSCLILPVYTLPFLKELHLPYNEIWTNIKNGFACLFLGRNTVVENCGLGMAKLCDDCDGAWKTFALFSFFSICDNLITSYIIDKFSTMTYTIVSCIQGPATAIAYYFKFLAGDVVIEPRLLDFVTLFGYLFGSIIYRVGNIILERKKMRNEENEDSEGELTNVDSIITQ
Summary of the method: as §1

[4] = target: T4, PfCRT^Ecu1110 (Plasmodium falciparum, UniProt Q9N623, A220S/I356L/K76T/N326D); assay: cell-based; format: cell-based; details: for Uptake of [3H]CQ (% PfCRTEcu1110 control), trans-stimulation / PfCRT-mediated [3H]CQ transport, trans-stimulation (% PfCRTEcu1110 control): PfCRTEcu1110 oocytes; for Uptake of [3H]CQ (% PfCRTEcu1110 control), trans-stimulation: total [3H]CQ transport, normalised to the oocyte type control; for PfCRT-mediated [3H]CQ transport, trans-stimulation (% PfCRTEcu1110 control): normalised to oocyte type control; for [3H]CQ transport (% PfCRTDd2 control), trans-stimulation, PfCRTEcu1110: PfCRT-mediated component (background subtracted), sheet title says normalised to PfCRTDd2 control, mean ± SEM, SEM
T4 sequence (Q9N623 whole entry A220S/I356L/K76T/N326D): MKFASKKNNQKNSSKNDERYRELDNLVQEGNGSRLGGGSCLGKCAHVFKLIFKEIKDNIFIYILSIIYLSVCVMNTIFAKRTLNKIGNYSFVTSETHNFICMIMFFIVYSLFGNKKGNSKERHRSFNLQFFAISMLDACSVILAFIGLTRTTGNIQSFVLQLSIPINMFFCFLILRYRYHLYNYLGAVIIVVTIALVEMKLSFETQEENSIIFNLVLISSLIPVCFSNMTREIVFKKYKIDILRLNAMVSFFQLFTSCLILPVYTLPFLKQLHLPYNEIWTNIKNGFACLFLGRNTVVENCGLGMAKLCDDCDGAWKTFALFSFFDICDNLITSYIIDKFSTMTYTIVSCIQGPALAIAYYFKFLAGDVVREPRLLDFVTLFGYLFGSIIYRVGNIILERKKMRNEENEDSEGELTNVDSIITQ
Summary of the method: as §1

[5] = test system: non-expressing oocytes; assay: cells; format: cell-based, Xenopus laevis; details: non-expressing oocytes, total [3H]CQ transport, normalised to the oocyte type control
Summary of the method: (§2)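 PfCRT-expressing and control oocytes: ND96 pH 5.5 → 1.5 h at 27.5 °C → ice-cold ND96 wash → 10% SDS lysis → scintillation count.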

[6] = test system: non-expressing oocytes; format: cell-based, Xenopus laevis; details: non-expressing oocytes, total [3H]CQ transport, normalised to the oocyte type control
Summary of the method: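 Oocytes (ten per treatment, ≥4 independent frogs/days) were preloaded by injecting VF-6 in 25 nL ND96 at pH 5.0, 5.5, 6.0 or 7.0, or Na^+-free choline buffer, then uptake run 1.5 h, 27.5 °C, ND96 pH 5.5 by default. Internal concentrations assumed ~400 nL oocyte volume.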

[7] = target: T1, PfCRT^3D7; assay: cell-based; format: cell-based; details: PfCRT3D7 oocytes, total [3H]CQ transport, normalised to the oocyte type control
Summary of the method: as §2

[8] = target: T3, PfCRT^Dd2; assay: [3H]CQ uptake into Xenopus oocytes, cis-inhibition by unlabelled solute; format: cell-based; details: PfCRTDd2 oocytes, background [3H]CQ accumulation subtracted, normalised to oocyte type control
Summary of the method: as §2

[9] = target: T4, PfCRT^Ecu1110; assay: as above; format: cell-based; details: for Uptake of [3H]CQ (% PfCRTEcu1110 control), cis-inhibition / PfCRT-mediated [3H]CQ transport, cis-inhibition (% PfCRTEcu1110 control): PfCRTEcu1110 oocytes; for Uptake of [3H]CQ (% PfCRTEcu1110 control), cis-inhibition: total [3H]CQ transport, normalised to the oocyte type control; for PfCRT-mediated [3H]CQ transport, cis-inhibition (% PfCRTEcu1110 control): background [3H]CQ accumulation subtracted, normalised to oocyte type control; for [3H]CQ transport (% PfCRTEcu1110 control), cis-inhibition, PfCRTEcu1110: PfCRT-mediated component (background subtracted), sheet title says normalised to PfCRTDd2 control, mean ± SEM, SEM
Summary of the method: as §2

[10] = [test solute]i = 45 mM (30 mM for some solutes due to solubility)
[11] = [test solute]i = 5 mM (intracellular)
[12] = [test solute]i = 45 mM (intracellular; 30 mM for some solutes due to solubility)
[13] = [test solute]i = 5 mM (injected)

Q: For GGYR [GR-4], which “Uptake of [3H]CQ (% PfCRT3D7 control), trans-stimulation” value ([1]; [test solute]i = 5 mM) is on record?
A: Its value is 100 ± 2.6 % PfCRT3D7 control.

Q: What about the “Uptake of [3H]CQ (% PfCRT3D7 control), trans-stimulation” value [1, 10] of the same substance?
A: The value was 99 ± 2.6 % PfCRT3D7 control.

Q: And the “PfCRT-mediated [3H]CQ transport, trans-stimulation (% PfCRT3D7 control)” value [1, 11]?
A: Its value is 98 ± 3.3 % PfCRT3D7 control.

Q: What about the “PfCRT-mediated [3H]CQ transport, trans-stimulation (% PfCRT3D7 control)” value [1, 12] of the same substance?
A: The value was 97 ± 4.2 % PfCRT3D7 control.

Q: What about the “Uptake of [3H]CQ (% PfNT1 control), trans-stimulation” value ([2]; [test solute]i = 5 mM) of the same substance?
A: Its value is 99 ± 3.2 % PfNT1 control.

Q: And the “Uptake of [3H]CQ (% PfNT1 control), trans-stimulation” value [2, 10]?
A: The value was 100 ± 3.7 % PfNT1 control.

Q: And the “Uptake of [3H]CQ (% PfCRTDd2 control), trans-stimulation” value ([3]; PfCRTDd2 oocytes, [test solute]i = 45 mM (30 mM for some solutes due to solubility), total [3H]CQ transport, normalised to the oocyte type control)?
A: Its value is 103 ± 3.6 % PfCRTDd2 control.

Q: And the “PfCRT-mediated [3H]CQ transport, trans-stimulation (% PfCRTDd2 control)” value ([3]; [test solute]i = 5 mM (intracellular), PfCRTDd2 oocytes)?
A: Its value is 99 ± 2.9 % PfCRTDd2 control.

Q: And the “PfCRT-mediated [3H]CQ transport, trans-stimulation (% PfCRTDd2 control)” value ([3]; [test solute]i = 45 mM (intracellular; 30 mM for some solutes due to solubility), PfCRTDd2 oocytes)?
A: Its value is 100 ± 4.9 % PfCRTDd2 control.

Q: What about the “[3H]CQ transport (% PfCRTDd2 control), trans-stimulation, PfCRTDd2” value [3, 13] of the same substance?
A: The value was 99 ± 2.9 % PfCRTDd2 control.

Q: What about the “[3H]CQ transport (% PfCRTDd2 control), trans-stimulation, PfCRTDd2” value [3, 10] of the same substance?
A: The value was 100 ± 4.9 % PfCRTDd2 control.

Q: What about the “Uptake of [3H]CQ (% PfCRTEcu1110 control), trans-stimulation” value ([4]; [test solute]i = 5 mM) of the same substance?
A: The value was 99 ± 3.2 % PfCRTEcu1110 control.

Q: What about the “Uptake of [3H]CQ (% PfCRTEcu1110 control), trans-stimulation” value [4, 10] of the same substance?
A: The value was 100 ± 3.2 % PfCRTEcu1110 control.

Q: What about the “PfCRT-mediated [3H]CQ transport, trans-stimulation (% PfCRTEcu1110 control)” value [4, 11] of the same substance?
A: The value was 97 ± 4.1 % PfCRTEcu1110 control.

Q: And the “PfCRT-mediated [3H]CQ transport, trans-stimulation (% PfCRTEcu1110 control)” value [4, 12]?
A: Its value is 98 ± 4.3 % PfCRTEcu1110 control.

Q: And the “[3H]CQ transport (% PfCRTDd2 control), trans-stimulation, PfCRTEcu1110” value [4, 13]?
A: Its value is 29 ± 1.5 % PfCRTEcu1110 control.

Q: And the “[3H]CQ transport (% PfCRTDd2 control), trans-stimulation, PfCRTEcu1110” value [4, 10]?
A: The value was 30 ± 1.2 % PfCRTEcu1110 control.

Q: And the “Uptake of [3H]CQ (% non-expressing oocyte control), cis-inhibition” value ([5]; [test solute] = 0.5 mM)?
A: Its value is 99 ± 5.2 % non-expressing oocyte control.

Q: What about the “Uptake of [3H]CQ (% non-expressing oocyte control), cis-inhibition” value ([5]; [test solute] = 2 mM) of the same substance?
A: The value was 100 ± 3.6 % non-expressing oocyte control.

Q: And the “Uptake of [3H]CQ (% non-expressing oocyte control), trans-stimulation” value ([6]; [test solute]i = 5 mM)?
A: The value was 100 ± 2.7 % non-expressing oocyte control.

Q: And the “Uptake of [3H]CQ (% non-expressing oocyte control), trans-stimulation” value [6, 10]?
A: Its value is 97 ± 2.5 % non-expressing oocyte control.

Q: What about the “Uptake of [3H]CQ (% PfCRT3D7 control), cis-inhibition” value ([7]; [test solute] = 0.5 mM) of the same substance?
A: The value was 102 ± 4.3 % PfCRT3D7 control.

Q: What about the “Uptake of [3H]CQ (% PfCRT3D7 control), cis-inhibition” value ([7]; [test solute] = 1 mM) of the same substance?
A: Its value is 98 ± 4.8 % PfCRT3D7 control.

Q: What about the “Uptake of [3H]CQ (% PfCRT3D7 control), cis-inhibition” value ([7]; [test solute] = 2 mM) of the same substance?
A: The value was 102 ± 5.8 % PfCRT3D7 control.

Q: And the “PfCRT-mediated [3H]CQ transport, cis-inhibition (% PfCRTDd2 control)” value ([8]; [test solute] = 0.5 mM)?
A: Its value is 71 ± 2.9 % PfCRTDd2 control.

Q: And the “PfCRT-mediated [3H]CQ transport, cis-inhibition (% PfCRTDd2 control)” value ([8]; [test solute] = 1 mM)?
A: Its value is 58 ± 4.2 % PfCRTDd2 control.

Q: And the “PfCRT-mediated [3H]CQ transport, cis-inhibition (% PfCRTDd2 control)” value ([8]; [test solute] = 2 mM)?
A: The value was 40 ± 2.1 % PfCRTDd2 control.

Q: What about the “Uptake of [3H]CQ (% PfCRTEcu1110 control), cis-inhibition” value ([9]; [test solute] = 0.5 mM) of the same substance?
A: Its value is 78 ± 6.9 % PfCRTEcu1110 control.

Q: What about the “Uptake of [3H]CQ (% PfCRTEcu1110 control), cis-inhibition” value ([9]; [test solute] = 1 mM) of the same substance?
A: Its value is 65 ± 7.1 % PfCRTEcu1110 control.

Q: And the “Uptake of [3H]CQ (% PfCRTEcu1110 control), cis-inhibition” value ([9]; [test solute] = 2 mM)?
A: Its value is 53 ± 4.7 % PfCRTEcu1110 control.

Q: What about the “PfCRT-mediated [3H]CQ transport, cis-inhibition (% PfCRTEcu1110 control)” value ([9]; [test solute] = 0.5 mM) of the same substance?
A: Its value is 71 ± 2.5 % PfCRTEcu1110 control.

Q: What about the “PfCRT-mediated [3H]CQ transport, cis-inhibition (% PfCRTEcu1110 control)” value ([9]; [test solute] = 1 mM) of the same substance?
A: Its value is 59 ± 2.4 % PfCRTEcu1110 control.

Q: And the “PfCRT-mediated [3H]CQ transport, cis-inhibition (% PfCRTEcu1110 control)” value ([9]; [test solute] = 2 mM)?
A: Its value is 48 ± 3.1 % PfCRTEcu1110 control.

Q: What about the “[3H]CQ transport (% PfCRTEcu1110 control), cis-inhibition, PfCRTEcu1110” value ([9]; [test solute] = 1 mM) of the same substance?
A: Its value is 19 ± 0.1 % PfCRTEcu1110 control.

Q: And the “[3H]CQ transport (% PfCRTEcu1110 control), cis-inhibition, PfCRTEcu1110” value ([9]; [test solute] = 2 mM)?
A: The value was 15 ± 0.6 % PfCRTEcu1110 control.
